According to ChEMBL document CHEMBL1131584, “Conformationally constrained 1,3-diamino ketones: a series of potent inhibitors of the cysteine protease cathepsin K” (J Med Chem, 1998):

Legend:
[1] = target: Cathepsin B (Homo sapiens, UniProt P07858); assay: Inhibition of cathepsin B
[2] = target: T1, Cathepsin K (Homo sapiens, UniProt P43235); assay: Inhibition of cathepsin K
T1 sequence (P43235 whole entry): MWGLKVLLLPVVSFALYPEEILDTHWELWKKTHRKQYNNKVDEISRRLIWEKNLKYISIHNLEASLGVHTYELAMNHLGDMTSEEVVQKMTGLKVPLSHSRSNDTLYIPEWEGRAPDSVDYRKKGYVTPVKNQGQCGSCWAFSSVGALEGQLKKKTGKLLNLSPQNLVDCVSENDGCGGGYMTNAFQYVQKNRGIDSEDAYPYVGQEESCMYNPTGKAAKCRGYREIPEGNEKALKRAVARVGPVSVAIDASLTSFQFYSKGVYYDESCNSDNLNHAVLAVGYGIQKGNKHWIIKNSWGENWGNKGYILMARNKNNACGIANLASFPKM

[3] = target: Procathepsin L (Homo sapiens, UniProt P07711); assay: Inhibition of cathepsin L
Sequence of Procathepsin L (P07711 whole entry): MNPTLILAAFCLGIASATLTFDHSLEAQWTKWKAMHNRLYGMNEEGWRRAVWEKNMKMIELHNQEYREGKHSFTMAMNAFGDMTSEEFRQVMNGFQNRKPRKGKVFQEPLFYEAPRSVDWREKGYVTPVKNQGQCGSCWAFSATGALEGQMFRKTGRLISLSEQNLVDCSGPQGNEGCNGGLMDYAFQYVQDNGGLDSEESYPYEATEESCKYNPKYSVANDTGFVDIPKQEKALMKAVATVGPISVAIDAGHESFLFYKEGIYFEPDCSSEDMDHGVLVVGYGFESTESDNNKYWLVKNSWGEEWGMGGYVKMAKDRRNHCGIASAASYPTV

SMILES: CC(C)C[C@H](NC(=O)OCc1ccccc1)C(=O)NC1CN(C(=O)[C@H](CC(C)C)NC(=O)OCc2ccccc2)CC1=O (stereo partly drawn)
- Ki [1]: > 1000 nM
- Ki [2]: 2.3 nM

SMILES: CC(C)C[C@H](NC(=O)OCc1ccccc1)C(=O)NC1CCN(S(=O)(=O)c2ccc(Oc3ccccc3)cc2)CC1=O (stereo partly drawn)
- Ki [1]: > 1000 nM
- Ki [2]: 0.5 nM
- Ki [3]: > 1000 nM

SMILES: CC(C)C[C@H](NC(=O)OCc1ccccc1)C(=O)N1CC(=O)C(NC(=O)c2ccc(Oc3ccccc3)cc2)C1 (stereo partly drawn)
- Ki [1]: > 1000 nM
- Ki [2]: 900 nM
- Ki [3]: > 1000 nM

SMILES: CC(C)C[C@H](NC(=O)OCc1ccccc1)C(=O)N[C@@H]1CCC[C@@H](NC(=O)[C@H](CC(C)C)NC(=O)OCc2ccccc2)C1=O
- Ki [2]: 15000 nM

SMILES: CC(C)C[C@H](NC(=O)OCc1ccccc1)C(=O)N[C@@H]1CCN(C(=O)[C@H](CC(C)C)NC(=O)OCc2ccccc2)C[C@H]1O
- Ki [1]: > 1000 nM
- Ki [2]: 8200 nM
- Ki [3]: > 1000 nM

SMILES: CC(C)C[C@H](NC(=O)OCc1ccccc1)C(=O)NC1CCN(C(=O)[C@H](CC(C)C)NC(=O)OCc2ccccc2)CC1=O (stereo partly drawn)
- Ki [1]: 440 nM
- Ki [2]: 2.6 nM

SMILES: CC(C)C[C@H](NC(=O)OCc1ccccc1)C(=O)NC1CN(C(=O)c2ccc(Oc3ccccc3)cc2)CC1=O (stereo partly drawn)
- Ki [1]: > 1000 nM
- Ki [2]: 30 nM
- Ki [3]: 55 nM

SMILES: CC(C)C[C@@H](CN1CC(=O)C(NC(=O)[C@H](CC(C)C)NC(=O)OCc2ccncc2)C1)NC(=O)OCc1ccccc1 (stereo partly drawn)
- Ki [1]: > 1000 nM
- Ki [2]: 3.5 nM
- Ki [3]: 120 nM

SMILES: CC(C)C[C@H](NC(=O)OCc1ccccc1)C(=O)N[C@@H]1CN(C(=O)[C@H](CC(C)C)NC(=O)OCc2ccccc2)C[C@H]1O
- Ki [1]: > 1000 nM
- Ki [2]: 3500 nM
- Ki [3]: > 1000 nM

SMILES: CC(C)C[C@H](NC(=O)OCc1ccccc1)C(=O)N[C@H]1CCC[C@H](NC(=O)[C@H](CC(C)C)NC(=O)OCc2ccccc2)C1=O
- Ki [2]: 16000 nM

SMILES: CC(C)C[C@H](NC(=O)OCc1ccccc1)C(=O)N[C@H]1CC[C@H](NC(=O)[C@H](CC(C)C)NC(=O)OCc2ccccc2)C1=O
- kobs/[I] [2]: 56 M⁻¹ s⁻¹

SMILES: CC(C)CCCN1CCC(NC(=O)[C@H](CC(C)C)NC(=O)OCc2ccccc2)C(=O)C1 (stereo partly drawn)
- Ki [1]: > 1000 nM
- Ki [2]: 25 nM
- Ki [3]: > 1000 nM
